Test results reported in article PMC7611415 (Chembiochem : a European journal of chemical biology, 2020).

Molecular target: T1, acetylcholine-binding protein (AcAChBP) (Aplysia californica, UniProt Q8WSF8)
T1 sequence (Q8WSF8 20-236): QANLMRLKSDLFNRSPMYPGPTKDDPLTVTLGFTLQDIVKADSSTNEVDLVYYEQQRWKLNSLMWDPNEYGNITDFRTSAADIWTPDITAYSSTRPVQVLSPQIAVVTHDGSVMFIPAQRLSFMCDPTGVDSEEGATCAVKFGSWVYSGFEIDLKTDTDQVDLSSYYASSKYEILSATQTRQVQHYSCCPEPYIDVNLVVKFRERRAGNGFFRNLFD
Assay: tryptophan fluorescence quenching

## C[N+]1(C)CCc2cc3c(cc2[C@H]1[C@@H]1OC(=O)c2c1ccc1c2OCO1)OCO3 [N-methylbicuculline]
  Kd: 1.2 ± 0.1 µM
